Here are results for three molecules from patent US20250325467A1, “COMPOSITIONS FOR PREVENTING OR TREATING SKIN AGING” (ESTETRA SRL, priority 2021, published 2025).

Entries after “also recorded” stand apart in the source; their conditions may differ.

The test system of one assay is IL-6 release from NHEKs. Put plainly: PMA/A23187-induced IL-6 release from NHEKs (ELISA, normalized to viability). In kind it is cell-based, human. Particulars: E2, 3 concentrations assessed (not specified); 24 h. Here is the method:
The Normal Human foreskin-derived Epidermal Keratinocytes (NHEKs, Lonza, 00192906), isolated from foreskin of 3 Caucasian donors, were grown in Epilife medium (Fisher Scientific, M-EPI-500-A) supplemented with Human Keratinocyte Growth Supplement (HKGS, Fisher Scientific, S-001-5) and antibiotics (Gentamycin, Fisher Scientific, 15710-049). The cells were maintained in a humidified incubator at 37° C. with a 5% CO2 atmosphere.
E4 and E2, provided as powder, were dissolved in 100% ethanol at 0.1M. They were then further diluted in ethanol and in culture medium to reach the appropriate concentrations. […] Practically, stock solutions 1000-fold concentrated were prepared in 100% ethanol, aliquoted and stored at −20° C. until cell application.
In order to induce the release of IL-6, NHEKs were exposed for 24 h with phorbol myristate acetate (PMA) at 10 ng/mL, in combination with calcium ionophore A23187 (Sigma Aldrich, C5722) at 2 μM. The treatments with the test or reference items were performed simultaneously with the inflammatory challenge. […] E4 was applied at 10^−4, 10^−5, 10^−6, 10^−7 and 10^−8 M and E2 at 10^−5, 10^−6, 10^−7, 10^−8 and 10^−9 M EtOH at 0.1% was tested as solvent control. Dexamethasone at 10 μM was used as anti-inflammatory reference. At the end of 24 h treatment, supernatants were harvested and stored at −20° C., and cell viability assay was assessed by MTS (see section 5). The kinetics of the treatments is outlined in FIG. 12. All the treatments were performed in triplicates (n=3).
The quantification of the release of inflammatory markers was performed using specific ELISA kits, based on standard curves, according to supplier's specifications. The results were then normalized to the corresponding cell viability (obtained by MTS assay).
The supplier's reference of the kits used for IL-6 quantification is as follows: IL-6, BioTechne, D6050.
At the end of the treatments and culture media collection, the viability of the cells was evaluated using the MTS (3-(4,5-dimethythiazol-2-yl)-5-(3-carboxy-methoxyphenyl)-2-(4-sulfophenyl)-2H-tetrazolium) assay. The effects of the treatments were compared to the untreated control condition and to the solvent control (EtOH 0.1%). The viability data were used in order to normalize the quantities of released inflammatory mediators.
NHEKs were treated as described in the methodology section. The quantification of IL-6 by ELISA was performed from the collected supernatants, following the instructions of the kit provider. Only 3 concentrations of the test items (chosen in accordance with the Sponsor following the results of the viability assay) were assessed in the ELISA.
(In general: ELISA stands for enzyme-linked immunosorbent assay.)

Assay [1] deals with Normal Human Dermal Fibroblasts (NHDFs). The assay is described as follows: Colonization of a standard acellular area (IBIDI chamber gap closure) by fibroblasts. The class given is cell-based. To be noted: for NHDF Proliferation & Migration (colonization of the acellular area): absence of MMC, 6 h and 24 h; for colonized area, NHDF, positive reference: 10 ng/ml. Here is the method: (§1) The study consists in an in vitro assay aiming to evaluate the properties of E4 and E2 at 4 concentrations each on keratinocytes and fibroblasts. In this assay, the measurement of the colonization of a standard acellular surface generated from a confluent monolayer of cells using a dedicated culture device (IBIDI chamber) is performed. The assay is performed in absence and in presence of a proliferation inhibitor to focus on cell proliferation and migration or on migration only, respectively.
Normal Human forskin-derived Dermal Fibroblats (NHDFs, ATCC) cells were grown in phenol-free Dulbecco's Modified Eagle Medium (DMEM, ThermoFisher Scientific) supplemented with 10% of Foetal Bovine Serum (FBS, ThermoFisher Scientific), L-glutamine and antibiotics. The cells were maintained in a humidified incubator at 37° C. with a 5% CO2 atmosphere.
(§2) Cells were plated in 2-well silicone inserts with a defined cell free gap (IBIDI chambers; IBIDI GmbH, 80209) that was previously inserted on 12-well culture plates. This culture device allows to create a standardized 500 μm±100 μm cell free gap for monitoring cell colonization. 24 h after seeding, when the culture reached high confluency, cells in the insert were treated, or not, with mitomycin C (MMC) at 10 μg/ml during 2 h. After these 2 hours, the insert was removed, and cells were treated with E2 or E4 in presence or not of MMC for additional 2 h. Then, if appropriate, the culture medium was removed and cells were treated with E2 or E4 for 22 h, in absence of MMC.
(§3) For the assay, keratinocytes were plated in Epilife medium without HKGS and all the treatments were performed in this medium. Fibroblasts were plated in DMEM medium containing only 2,5% of FBS and the treatments were performed in absence of FBS.
(§4) E2 and E4 were applied at 4 concentrations each (10^−7M, 10^−8M, 10^−9M, 10^−10M). In parallel, cells were treated with a positive control (HKGS 1% for human keratinocytes and PDGF-BB at 10 ng/ml for human fibroblasts).
(§5) To monitor cell colonization and to evaluate the gap closure rate, pictures of the gap were taken after different times: at time 0 h, corresponding to the beginning of the treatment with E2 or E4 and to the removal of the culture insert, at time 6 h and at time 24 h (corresponding to the end of the treatments with E2 or E4). Pictures were taken with a microscope Zeiss (Axiover 25-10× objective) and with a camera Invenio2EIII (DeltaPix—Lux-Optic). The colonized areas were quantified from the pictures by the use of the WimAsis platform—WimScratch software. For each insert, 3 pictures were taken at each time. As each condition was performed in triplicates, it means a total of 9 pictures per condition and per time point of acquisition

The subject of assay [2] is Normal Human Epidermal Keratinocytes (NHEKs). Put plainly: Colonization of a standard acellular area (IBIDI chamber gap closure) by keratinocytes. The class given is cell-based. Particulars: for colonization of the cell-free area by NHEK, overall: all four concentrations (10^−7M to 10^−10M), vs ethanol control. As to the method: as §1
The study was performed using cultures of Normal Human foreskin-derived Epidermal Keratinocytes (NHEKs, Lonza). The cells were grown in serum free Epilife medium (ThermoFisher Scientific) supplemented with Human Keratinocyte Growth Supplement (HKGS, ThermoFisher Scientific) and antibiotics. The cells were maintained in a humidified incubator at 37° C. with a 5% CO2 atmosphere.
as §2, §3, §4, §5

Assay [3] deals with mouse lymphoma cell line L5178Y TK^+/−. Put plainly: Generation of reactive oxygen species (ROS) in mouse lymphoma cells. In kind it is cell-based. Particulars: up to 100 μM; 3 h exposure; vs vehicle control. Here is the method:
The objective of the study was to investigate the generation of reactive oxygen species (ROS) induced by the test item, estetrol (E4), in a mouse lymphoma cell line L5178Y TK^+/−.
L5178Y TK^+/− cells in logarithmic phase of growth were plated in black 96 well cell culture plates at 1×10^4 cells in 90 μL of cell culture media. Controls and test item in triplicate were applied to the cells as a 10× concentrate in 10 μL of a 10% ethanol solution in PBS (final concentration of ethanol on plate was 1%). Cells were incubated for 3 hours at 37° C., 5% CO2, and the generation of ROS was evaluated by fluorescence with a ROS reagent: the ROS reagent was freshly prepared by dissolving one ampoule of reagent (50 μg) in 70 μL DMSO and further diluting this with 2.1 mL of pre-warmed PBS. 10 μL of ROS reagent was added to each well and the plate were shaken for 30 seconds in the dark. The plates were incubated approximately at 37° C., 5% CO2 for 1 h 30 min and fluorescence was read on a plate scanner with excitation at 492 nm and emission at 520 nm.

As for `C[C@]12CC[C@@H]3c4ccc(O)cc4CC[C@H]3[C@@H]1CC[C@@H]2O` [E2, 17β-estradiol, reference compound], the “PMA/A23187-induced IL-6 release” value in the assay with IL-6 release from NHEKs is “unaffected; also recorded: not observed”. Further, the “NHDF Proliferation & Migration (colonization of the acellular area)” value in assay [1] (10^−7M, vs ethanol control) is given as “increased the colonization of the acellular area; also recorded: significant activity”; in assay [1] (10^−8M, vs ethanol control), “increased the colonization of the acellular area; also recorded: significant activity”; in assay [1] (10^−10M, vs ethanol control), “increased the colonization of the acellular area; also recorded: significant activity”. In assay [1] (presence of MMC, all four concentrations (10^−7M to 10^−10M), vs ethanol control), the “colonization of the cell-free gap by NHDF, overall” value is recorded as “not able to significantly increase the colonization of the cell-free gap”. Moreover, the “effect on the gap closure by NHEK” value in assay [2] (10^−7M to 10^−9 M, after 24 h of treatment, significant only for 10^−8M) is on record as “inhibitor effect on the gap closure”. Also, the “colonization of the cell-free area by NHEK, overall” value in assay [2] (absence of MMC) and in assay [2] (presence of MMC) was “not able to significantly increase the colonization of the cell-free area; also recorded: no significant effect on keratinocyte proliferation or migration” throughout.
Turning to `OO` [hydrogen peroxide, reference compound], in assay [3], the “levels of ROS (controls)” value is listed as “tendency to increase the levels of ROS”.

B1: PDGF-BB: positive control at 10 ng/ml for human fibroblasts (protein, UniProt P01127 82-190, looked up)
Platelet-derived growth …: SLGSLTIAEPAMIAECKTRTEVFEISRRLIDRTNANFLVWPPCVEVQRCSGCCNNRNVQCRPTQVQLRPVQVRKIEIVRKKPIFKKATVTLEDHLACKCETVAAARPVT
Consider B1, for which the “colonized area, NHDF, positive reference” value in assay [1] (in absence of MMC) and in assay [1] (in presence of MMC) was “significantly increases the colonized area” each time.
